Experimental data published in ChEMBL document CHEMBL1201862, “PubChem BioAssay data set” (2004).
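In this assay, cells in 96-well plates receive the compound at five concentrations for 48 hours. Endpoints are linearly interpolated between the surrounding concentrations. GI50 = concentration required for 50% inhibition of growth.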 The source made the active and inactive calls. Rule as the data show it: active = GI50 up to about 1.1 µM and inactive = higher.

How the values were obtained:
Assay in all cases: NCI-60 cell line screen, 48 h
ACHN = tested on: ACHN
BT-549 = tested on: BT-549
CCRF-CEM = tested on: CCRF-CEM
HCT-116 = tested on: HCT-116
HOP-62 = tested on: HOP-62
HT-29 = tested on: HT-29
IGROV-1 = tested on: IGROV-1
KM12 = tested on: KM12
NCI-H460 = tested on: NCI-H460
PC-3 = tested on: PC-3
RPMI-8226 = tested on: RPMI-8226
RXF 393 = tested on: RXF 393
SK-MEL-5 = tested on: SK-MEL-5
SR = tested on: SR
SW-620 = tested on: SW-620
TK-10 = tested on: TK-10
U-251 = tested on: U-251

SMILES	GI50 (ACHN)	GI50 (BT-549)	GI50 (CCRF-CEM)	GI50 (HCT-116)	GI50 (HOP-62)	GI50 (HT-29)	GI50 (IGROV-1)	GI50 (KM12)	GI50 (NCI-H460)	GI50 (PC-3)	GI50 (RPMI-8226)	GI50 (RXF 393)	GI50 (SK-MEL-5)	GI50 (SR)	GI50 (SW-620)	GI50 (TK-10)	GI50 (U-251)
C=C(Cl)[C@@](Cl)(CBr)CC[C@@H](Br)C(C)(C)Cl	0.149 µM (active)	3.66 µM (inactive)	15.8 µM (inactive)	0.25 µM (active)	0.103 µM (active)	0.253 µM (active)	11.7 µM (inactive)	0.228 µM (active)	0.108 µM (active)	0.555 µM (active)	0.0566 µM (active)	0.126 µM (active)	2.67 µM (inactive)	15.4 µM (inactive)	0.321 µM (active)	0.269 µM (active)	0.154 µM (active)
CCCCCC1CC=CC(=O)O1 (stereo unspecified)	7.62 µM (inactive)	12.3 µM (inactive)	2.39 µM (inactive)	2.04 µM (inactive)	4.36 µM (inactive)	3.89 µM (inactive)	2.94 µM (inactive)	4.39 µM (inactive)	11 µM (inactive)	3.78 µM (inactive)	1.91 µM (inactive)	4.49 µM (inactive)	12.4 µM (inactive)	3.39 µM (inactive)	4.1 µM (inactive)	11.6 µM (inactive)	3.56 µM (inactive)
COC(=O)[C@@H]1C[C@H]([Se]c2ccccc2)CN1S(=O)(=O)c1ccc(C)cc1	> 100 µM (inactive)	98.2 µM (inactive)	61 µM (inactive)	67.3 µM (inactive)	> 100 µM (inactive)	49.7 µM (inactive)	> 100 µM (inactive)	68.9 µM (inactive)	> 100 µM (inactive)	26.5 µM (inactive)	59.4 µM (inactive)	39.4 µM (inactive)	45.2 µM (inactive)	32.1 µM (inactive)	> 100 µM (inactive)	> 100 µM (inactive)	53 µM (inactive)
CC/C=C\C/C=C\C/C=C\CCCCCCCC(=O)OC(COC(=O)CCCCCCCCCCCCCCCCC)COC1OC(CO)C(O)C(O)C1O (stereo unspecified)	> 25 µM (inactive)	> 25 µM (inactive)	> 25 µM (inactive)	> 25 µM (inactive)	> 25 µM (inactive)	22.8 µM (inactive)	12.3 µM (inactive)	> 25 µM (inactive)	> 25 µM (inactive)	22.8 µM (inactive)	8.57 µM (inactive)	> 25 µM (inactive)	> 25 µM (inactive)	> 25 µM (inactive)	> 25 µM (inactive)	> 25 µM (inactive)	> 25 µM (inactive)
CCN(CC)c1ccc(/C=C(\C#N)c2nc(N)nc(N3N=C(C)CC3(C)C)n2)cc1	14.7 µM (inactive)	47.4 µM (inactive)	19.1 µM (inactive)	15.9 µM (inactive)	11.1 µM (inactive)	18.8 µM (inactive)	7.82 µM (inactive)	13.1 µM (inactive)	18.3 µM (inactive)	37.2 µM (inactive)	32 µM (inactive)	8.93 µM (inactive)	21.6 µM (inactive)	12.2 µM (inactive)	55.6 µM (inactive)	14.8 µM (inactive)	13.3 µM (inactive)
Cc1c2cccc(Sc3ccccc3)c2c2c3c(cccc13)[S+](c1ccccc1)C2 (stereo unspecified)	4.04 µM (inactive)	2.14 µM (inactive)	1.77 µM (inactive)	2.06 µM (inactive)	1.89 µM (inactive)	1.47 µM (inactive)	2.34 µM (inactive)	1.16 µM (inactive)	1.58 µM (inactive)	2.06 µM (inactive)	0.221 µM (active)	3.86 µM (inactive)	0.748 µM (active)	0.838 µM (active)	3.26 µM (inactive)	2.67 µM (inactive)	1.5 µM (inactive)
N#Cc1nc2ccccc2nc1N1CCN(c2ccc([N+](=O)[O-])cc2)CC1	> 100 µM (inactive)	> 100 µM (inactive)	> 100 µM (inactive)	> 100 µM (inactive)	> 100 µM (inactive)	> 100 µM (inactive)	> 100 µM (inactive)	> 100 µM (inactive)	> 100 µM (inactive)	> 100 µM (inactive)	> 100 µM (inactive)	> 100 µM (inactive)	> 100 µM (inactive)	0.0339 µM (active)	> 100 µM (inactive)	> 100 µM (inactive)	> 100 µM (inactive)
CC(C)=CCc1c2c(c3occ(-c4ccc(O)c(O)c4)c(=O)c3c1O)C=CC(C)(C)O2 [POMIFERIN]	2.39 µM (inactive)	3.46 µM (inactive)	0.723 µM (active)	1.85 µM (inactive)	1.89 µM (inactive)	1.84 µM (inactive)	2.11 µM (inactive)	1.72 µM (inactive)	1.64 µM (inactive)	1.61 µM (inactive)	1.67 µM (inactive)	2.39 µM (inactive)	2.96 µM (inactive)	0.204 µM (active)	0.714 µM (active)	1.6 µM (inactive)	1.48 µM (inactive)
